According to US20240217997A1 (priority 2021, published 2024):
In brackets after ≈: the same amount, converted by molar mass. Where two headings read alike, the source gives them in different places.

Key:
[1] = molecular target: P. falciparum DXR (Plasmodium falciparum, UniProt Q8IKG4); conditions: cited from earlier work
[2] = tested on: Plasmodium falciparum; test: Plasmodium falciparum minimum inhibitory concentration (MIC), Table 4; assay type: cell-based
[3] = tested on: Mycobacterium tuberculosis; test: microbe, parasite or virus in culture

P. falciparum DXR, sequence (Q8IKG4 73-488): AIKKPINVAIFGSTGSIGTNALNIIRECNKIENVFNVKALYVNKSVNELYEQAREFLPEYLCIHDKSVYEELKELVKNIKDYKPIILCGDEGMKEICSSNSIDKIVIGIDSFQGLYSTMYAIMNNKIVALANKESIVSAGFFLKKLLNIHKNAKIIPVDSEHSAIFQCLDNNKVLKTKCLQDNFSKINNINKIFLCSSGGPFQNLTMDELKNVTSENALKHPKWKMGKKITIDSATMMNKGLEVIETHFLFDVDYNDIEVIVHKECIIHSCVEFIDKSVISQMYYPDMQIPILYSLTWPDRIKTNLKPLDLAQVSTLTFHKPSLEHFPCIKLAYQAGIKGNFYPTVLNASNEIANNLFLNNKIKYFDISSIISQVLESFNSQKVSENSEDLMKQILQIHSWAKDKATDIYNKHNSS

SMILES: CC(=O)N(O)CCCP(=O)(O)O [FR900098]
- IC50 [1]: 24 nM

SMILES: O=CN(O)CCCP(=O)(O)O [Fosmidomycin]
- MIC, Mean ([2]; Mean of Runs 1-3): 0.9075 µg/mL (≈ 4.96 µM)
- MIC, Run 1 ([2]; Run 1): 1.391 µg/mL (≈ 7.6 µM)
- MIC, Run 2 ([2]; Run 2): 0.7607 µg/mL (≈ 4.15 µM)
- MIC, Run 3 ([2]; Run 3): 0.5708 µg/mL (≈ 3.12 µM)

SMILES: NNC(=O)c1ccncc1 [Isoniazid]
- MIC ([3]; 168 h, read-out: 1-week MIC 7H9/glucose/BSA/Tx): 0.02 µg/mL (≈ 0.146 µM)
- MIC ([3]; 168 h, read-out: 1-week MIC 7H9/glucose/casitone/Tx): 0.02 µg/mL (≈ 0.146 µM)
- MIC ([3]; 168 h, read-out: 1-week MIC 7H9/glycerol/glucose/BSA/Tween): 0.03 µg/mL (≈ 0.219 µM)
- MIC ([3]; 336 h, read-out: 2-week MIC 7H9/glucose/BSA/Tx): 0.03 µg/mL (≈ 0.219 µM)
- MIC ([3]; 336 h, read-out: 2-week MIC 7H9/glucose/casitone/Tx): 0.02 µg/mL (≈ 0.146 µM)
- MIC ([3]; 336 h, read-out: 2-week MIC 7H9/glycerol/glucose/BSA/Tween): 0.039 µg/mL (≈ 0.284 µM)
